Test results published in patent publication US10383925B2, “Cancer antigen EEF2” (International Institute of Cancer Immunology, Inc., priority 2009, dated 2019).
Ends that are not written are not given here.

Assays:
[1] = tested on: CTL from healthy donors having an HLA-A*0201 molecule; test: Cytotoxic activity of CTL induced by HLA-A*0201-restricted eEF2 peptides; type: cell-based, human; conditions: PBMC of HLA-A*0201 donors stimulated with peptide; 6th day after the final peptide stimulation
Protocol: From T cell clones established as described above, CD8-positive T cells were purified using CD8 Microbeads to prepare effector cells. Subsequently, target cells were incubated with ^51Cr-labeled sodium chromate (Amersham Biosciences Corp., NJ) for 1 hour to label the cells. They were then mixed with the effector cells so that the ratio of cell count was 1:1, 3:1 and 9:1 of CTL/target cell (E/T) ratio, and the mixture was allowed to stand for 4 hours. The percentage of cells lysed was calculated according to the following equation: Specific lysis %=[(cpm experimental release−cpm spontaneous release)/(cpm maximal release−cpm spontaneous release)]×100. T2-2402 cells pulsed with an eEF2786-794 pep tide were used as the target cells, and T2-2402 cells not pulsed with the eEF2786-794 peptide (SEQ ID NO:7) as a negative control.
The experiments were carried out in much the same way as in the above Example 3. Thus, blood was taken from healthy donors having an HLA-A*0201 molecule, peripheral blood mononuclear cells were separated, and the first stimulation was carried out using the six candidate peptides (stimulator: self-PBMC). Subsequently, the peptide stimulation on the second day and later was carried out at intervals of 8 to 13 days (stimulator: allo B-LCL 3 mg/ml). Furthermore, IL-2 was added every 2 days after the second stimulation at a final concentration of 20 IU/ml. Cytotoxicity was measured on the 6th day after the final peptide stimulation.

CD8-positive T cells = test: Interferon-γ activity, T cells with peptide-pulsed HLA-A*2402 molecule-expressing T2 cells; type: cell-based; conditions: HLA-A*2402 molecule-expressing T2 cells pulsed with peptide, 5 hours
Protocol: T cells were incubated together with HLA-A*2402 molecule-expressing T2 cells pulsed with eEF2 peptides (eEF2409-417, eEF2412-420 and eEF2701-709 peptides) in the presence of brefeldin A (Sigma) at 37° C. for 5 hours. After washing with PBS, CD3 and CD8 molecules which are cell surface antigens were stained by PerCP-conjugated anti-CD3 (BD Biosciences) and PE-conjugated anti-CD8 (Caltag, Burlingame, Calif.) antibodies on ice for 15 minutes. Subsequently, cells were fixed using Cytofix (BD Biosciences) on ice for 20 minutes, and intracellular IFN-γ was reacted with an FITC-conjugated anti-IFN-γ antibody (BD Biosciences) on ice for 30 minutes. Frequency of IFN-γ-positive cells present in CD8-positive T cells was analyzed using a flow cytometer.

colon cancer SW480 cells = test: Cytotoxic activity (51Cr release) of peptide-induced CTL against endogenous eEF2 gene-expressing cells; type: cell-based; conditions: SW480 (HLA-A*2402 on surface) vs AZ-521 and MiaPaCa2 (no HLA-A*2402) as negative control
[2] = tested on: CD8-positive T cells of donors having the HLA-A*0206 molecule; test: Interferon-γ production, donors having the HLA-A*0206 molecule; type: cell-based
Protocol: T cells were incubated together with HLA-A*0201 molecule-expressing T2 cells pulsed with HLA-A*0201-restricted eEF2 peptides in the presence of brefeldin A (Sigma) at 37° C. for 5 hours. After washing with PBS, CD3 and CD8 molecules which are cell surface antigens were stained by PerCP-conjugated anti-CD3 (BD Biosciences) and PE-conjugated anti-CD8 (Caltag, Burlingame, Calif.) antibodies on ice for 15 minutes. Subsequently, cells were fixed using Cytofix (BD Biosciences) on ice for 20 minutes, and intracellular IFN-γ was reacted with an FITC-conjugated anti-IFN-γ antibody (BD Biosciences) on ice for 30 minutes. Frequency of IFN-γ-positive cells present in CD8-positive T cells was analyzed using a flow cytometer.
Next, evaluation was carried out as to whether the above 6 peptides and the eEF2292-300 peptide (SEQ ID NO:14) can bind to an HLA-A*0206 molecule and produce interferon-γ. The experiments were carried out in the same way as in the above method, except that donors having the HLA-A*0206 molecule were used.

| Compound | cytotoxic activity [1] | other results |
| --- | --- | --- |
| CC(C)C[C@H](NC(=O)[C@H](CCC(N)=O)NC(=O)[C@H](CS)NC(=O)[C@H](Cc1ccccc1)NC(=O)[C@@H](NC(=O)[C@H](CCCNC(=N)N)NC(=O)[C@@H]1CCCN1C(=O)[C@H](CC(C)C)NC(=O)[C@@H](N)CCCCN)[C@@H](C)O)C(=O)O [eEF2284-292] | increase of cytotoxic activity was observed | – |
| CC[C@H](C)[C@H](NC(=O)[C@@H]1CCCN1C(=O)[C@H](CC(=O)O)NC(=O)[C@H](CC(C)C)NC(=O)[C@H](CC(C)C)NC(=O)[C@@H](N)CC(C)C)C(=O)N[C@@H](Cc1ccccc1)C(=O)N[C@@H](CCCCN)C(=O)N[C@@H](CC(C)C)C(=O)O [eEF2292-300 2L9L] | increase cytotoxicity | – |
| CC[C@H](C)[C@H](NC(=O)[C@@H]1CCCN1C(=O)[C@H](CC(=O)O)NC(=O)[C@H](CC(C)C)NC(=O)[C@H](CC(C)C)NC(=O)[C@@H](N)CC(C)C)C(=O)N[C@@H](Cc1ccccc1)C(=O)N[C@@H](CCCCN)C(=O)N[C@H](C(=O)O)C(C)C [eEF2292-300 2L] | increase cytotoxicity | – |
| CC[C@H](C)[C@H](NC(=O)[C@@H]1CCCN1C(=O)[C@H](CC(=O)O)NC(=O)[C@H](CC(C)C)NC(=O)[C@H](CCSC)NC(=O)[C@@H](N)CC(C)C)C(=O)N[C@@H](Cc1ccccc1)C(=O)N[C@@H](CCCCN)C(=O)N[C@@H](CC(C)C)C(=O)O [eEF2292-300 2M9L] | increase cytotoxicity | – |
| CC[C@H](C)[C@H](NC(=O)[C@@H]1CCCN1C(=O)[C@H](CC(=O)O)NC(=O)[C@H](CC(C)C)NC(=O)[C@H](CCSC)NC(=O)[C@@H](N)CC(C)C)C(=O)N[C@@H](Cc1ccccc1)C(=O)N[C@@H](CCCCN)C(=O)N[C@H](C(=O)O)C(C)C [eEF2292-300 2M] | increase cytotoxicity | – |
| CC[C@H](C)[C@H](NC(=O)[C@H](Cc1ccc(O)cc1)NC(=O)[C@H](CCSC)NC(=O)[C@H](CCSC)NC(=O)[C@@H](N)CC(C)C)C(=O)N[C@@H](CO)C(=O)N[C@@H](CCCCN)C(=O)N[C@@H](CCSC)C(=O)N[C@H](C(=O)O)C(C)C [eEF2394-402] | increase of cytotoxic activity was observed | – |
| CC(C)C[C@H](NC(=O)[C@H](CCCNC(=N)N)NC(=O)[C@H](CCCCN)NC(=O)[C@H](CC(C)C)NC(=O)CNC(=O)[C@H](CCC(=O)O)NC(=O)[C@@H](NC(=O)[C@H](CC(C)C)NC(=O)[C@@H](N)CCCCN)C(C)C)C(=O)O [eEF2519-527] | increase of cytotoxic activity was observed | – |
| CC[C@H](C)[C@H](N)C(=O)N[C@@H](CC(C)C)C(=O)N[C@H](C(=O)N[C@@H](CC(=O)O)C(=O)N[C@H](C(=O)N[C@H](C(=O)N[C@@H](CCCCN)C(=O)NCC(=O)N[C@H](C(=O)O)C(C)C)[C@@H](C)O)[C@@H](C)CC)[C@@H](C)O [eEF2661-669] | increase of cytotoxic activity was observed | – |
| CC[C@H](C)[C@H](NC(=O)[C@H](CCC(=O)O)NC(=O)[C@H](CC(N)=O)NC(=O)[C@H](CC(C)C)NC(=O)[C@@H](N)Cc1ccc(O)cc1)C(=O)N[C@@H](CCCCN)C(=O)N[C@@H](CC(=O)O)C(=O)N[C@@H](CO)C(=O)N[C@H](C(=O)O)C(C)C [eEF2671-679] | increase of cytotoxic activity was observed | – |
| CC[C@H](C)[C@H](NC(=O)[C@@H]1CCCN1C(=O)[C@H](CCC(=O)O)NC(=O)[C@H](CCSC)NC(=O)[C@H](CC(C)C)NC(=O)[C@@H](N)CCCNC(=N)N)C(=O)N[C@@H](Cc1ccc(O)cc1)C(=O)N[C@@H](CC(C)C)C(=O)N[C@H](C(=O)O)C(C)C [eEF2739-747] | increase of cytotoxic activity was observed | – |
| AFGRVFSGL [eEF2412-420] | – | interferon-γ activity (frequency of IFN-γ-positive cells in CD8-positive T cells) (CD8-positive T cells): increase the interferon-γ activity |
| AYLPVNESF [eEF2786-794] | – | cytotoxic activity against endogenous eEF2 gene-expressing cells (colon cancer SW480 cells): specifically impair the cells which express the eEF2 and have the HLA-A*2402 molecule |
| LILDPIFKV (listed as Homo sapiens) [eEF2292-300] | – | production of interferon-γ [2]: also serve as an HLA-A*0206-restricted peptide |
| RFDVHDVTL [eEF2701-709] | – | interferon-γ activity (frequency of IFN-γ-positive cells in CD8-positive T cells) (CD8-positive T cells): increase the interferon-γ activity |
| RFYAFGRVF (listed as Homo sapiens) [eEF2409-417] | – | interferon-γ activity (frequency of IFN-γ-positive cells in CD8-positive T cells) (CD8-positive T cells): increase the interferon-γ activity |
